pIC50: −log10 of the molar value.
How the values were obtained:
[1] = tested on: MOLM-14 D835Y (endogenous FLT3 ITD and transfected FLT3 D835Y); assay: MOLM-14 D835Y cell proliferation assay (CellTiter-Glo); assay type: cell-based; conditions: Homo sapiens, MOLM-14, 72 h; 3 d growth, GMean
Outline: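 MOLM-14 cells (FLT3 ITD) carrying D835Y or F691L, 1×10^4 cells/well, eight 1:3 dilutions from 1 μM final, 0.2% DMSO, 3 days at 37 °C, 5% CO2. Viability by CellTiter-Glo luminescence (ATP content); IC50 from concentration-response.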

BA/F3-FLT3-ITD + D835Y = target: T1, BA/F3-FLT3-ITD + D835Y (Homo sapiens, UniProt P36888, D835Y, cells depend on it, form not given); assay: Engineered BA/F3 cell growth assay, FLT3 ITD/D835Y; assay type: cell-based, murine; conditions: 3 d growth
T1 sequence (P36888 with tags, fused parts or gaps INS600HVDFREYEYD/D835Y): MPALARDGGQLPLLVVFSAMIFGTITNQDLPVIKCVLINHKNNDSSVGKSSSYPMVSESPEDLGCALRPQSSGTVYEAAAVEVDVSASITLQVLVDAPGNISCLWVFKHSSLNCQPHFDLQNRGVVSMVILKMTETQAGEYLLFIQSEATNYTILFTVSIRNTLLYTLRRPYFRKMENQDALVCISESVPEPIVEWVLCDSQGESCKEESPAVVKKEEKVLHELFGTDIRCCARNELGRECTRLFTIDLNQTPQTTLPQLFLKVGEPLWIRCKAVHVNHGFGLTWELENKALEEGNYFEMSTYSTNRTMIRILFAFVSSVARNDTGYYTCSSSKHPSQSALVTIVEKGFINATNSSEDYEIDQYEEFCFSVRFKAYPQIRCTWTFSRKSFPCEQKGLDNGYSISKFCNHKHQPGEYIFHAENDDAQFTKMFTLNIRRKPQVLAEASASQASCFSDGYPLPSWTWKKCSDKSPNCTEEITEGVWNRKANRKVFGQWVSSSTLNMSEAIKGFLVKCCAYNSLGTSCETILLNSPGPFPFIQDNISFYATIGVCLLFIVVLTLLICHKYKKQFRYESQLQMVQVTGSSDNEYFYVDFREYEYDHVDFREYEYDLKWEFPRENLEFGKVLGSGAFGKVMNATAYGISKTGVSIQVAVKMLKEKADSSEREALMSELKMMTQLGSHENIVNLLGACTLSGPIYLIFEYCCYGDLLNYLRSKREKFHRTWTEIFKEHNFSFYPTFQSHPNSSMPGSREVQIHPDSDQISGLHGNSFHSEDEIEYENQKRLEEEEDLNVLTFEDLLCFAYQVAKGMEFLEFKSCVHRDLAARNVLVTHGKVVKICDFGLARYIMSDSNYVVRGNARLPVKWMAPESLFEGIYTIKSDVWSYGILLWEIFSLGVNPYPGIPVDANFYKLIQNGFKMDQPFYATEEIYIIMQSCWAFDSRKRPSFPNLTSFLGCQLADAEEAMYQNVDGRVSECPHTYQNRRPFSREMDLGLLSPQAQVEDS
Outline: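 Murine Ba/F3 cells transfected with full-length FLT3 ITD/D835Y, grown without IL-3 so growth depends on FLT3. Seeded at 1×10^4 cells/well, 8-point 1:3 series to 1 μM top (0.2% DMSO), 3 days at 37 °C. CellTiter-Glo luminescence (ATP) versus concentration gave IC50.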

Compound | pIC50 [1] | GI50 (BA/F3-FLT3-ITD + D835Y)
COc1ncc(NC(=O)Cc2ccc(-c3cnc4[nH]c(-c5ccc(C#N)nc5)cc4c3)cc2F)cc1C(F)(F)F [Compound P-0011, 2-[4-[2-(6-cyano-3-pyridyl)-1H-pyrrolo[2,3-b]pyridin-5-yl]-2-fluoro-phenyl]-N-[6-methoxy-5-(trifluoromethyl)-3-pyridyl]acetamide] | 5.00 to 10.00 | 0.0001 to 10 µM
COc1ncc(NC(=O)Cc2ccc(-c3cnc4[nH]c(-c5ccnc(C#N)c5)cc4c3)cc2F)cc1C(F)(F)F [Compound P-0013, 2-[4-[2-(2-cyano-4-pyridyl)-1H-pyrrolo[2,3-b]pyridin-5-yl]-2-fluoro-phenyl]-N-[6-methoxy-5-(trifluoromethyl)-3-pyridyl]acetamide] | 5.00 to 10.00 | 0.0001 to 10 µM
COc1ncc(NC(=O)Cc2ccc(-c3cnc4[nH]c(-c5cnn(C(F)F)c5)cc4c3)cc2F)cc1C(F)(F)F [Compound P-0015, 2-[4-[2-[1-(difluoromethyl)pyrazol-4-yl]-1H-pyrrolo[2,3-b]pyridin-5-yl]-2-fluoro-phenyl]-N-[6-methoxy-5-(trifluoromethyl)-3-pyridyl]acetamide] | 5.00 to 10.00 | 0.0001 to 10 µM
COc1ncc(NC(=O)Cc2ccc(-c3cnc4[nH]c(-c5ccnc(C#N)c5)cc4c3)c(F)c2)cc1C(F)(F)F [Compound P-0016, 2-[4-[2-(2-cyano-4-pyridyl)-1H-pyrrolo[2,3-b]pyridin-5-yl]-3-fluoro-phenyl]-N-[6-methoxy-5-(trifluoromethyl)-3-pyridyl]acetamide] | 5.00 to 10.00 | 0.0001 to 10 µM
Cn1cnc(Nc2ncc(-c3ccc(CC(=O)Nc4cc(C(F)(F)F)ccn4)cc3F)cn2)c1 [Compound P-0018, 2-[3-fluoro-4-[2-[(1-methylimidazol-4-yl)amino]pyrimidin-5-yl]phenyl]-N-[4-(trifluoromethyl)-2-pyridyl]acetamide] | 5.00 to 10.00 | 0.0001 to 10 µM
Cn1cnc(Nc2ncc(-c3cc(F)c(CC(=O)Nc4cc(C(F)(F)F)ccn4)cc3F)cn2)c1 [Compound P-0020, 2-[2,5-difluoro-4-[2-[(1-methylimidazol-4-yl)amino]pyrimidin-5-yl]phenyl]-N-[4-(trifluoromethyl)-2-pyridyl]acetamide] | 5.00 to 10.00 | 0.0001 to 10 µM
Cn1cnc(Nc2ncc(-c3ccc(CC(=O)Nc4cc(C(F)(F)F)ccn4)cc3)cn2)c1 [Compound P-0022, 2-[4-[2-[(1-methylimidazol-4-yl)amino]pyrimidin-5-yl]phenyl]-N-[4-(trifluoromethyl)-2-pyridyl]acetamide] | 5.00 to 10.00 | 0.0001 to 10 µM
O=C(Cc1ccc(-c2cnc(Nc3cnn(C(F)F)c3)nc2)cc1)Nc1cc(C(F)(F)F)ccn1 [Compound P-0023, 2-[4-[2-[[1-(difluoromethyl)pyrazol-4-yl]amino]pyrimidin-5-yl]phenyl]-N-[4-(trifluoromethyl)-2-pyridyl]acetamide] | 5.00 to 10.00 | 0.0001 to 10 µM
COc1cc(-c2cc3cc(-c4ccc(CC(=O)Nc5cncc(C(F)(F)F)c5)cc4F)cnc3[nH]2)ccn1 [Compound P-0200, 2-(3-fluoro-4-(2-(2-methoxypyridin-4-yl)-1H-pyrrolo[2,3-b]pyridin-5-yl)phenyl)-N-(5-(trifluoromethyl)pyridin-3-yl)acetamide] | 5.00 to 10.00 | 0.0001 to 10 µM
CC(C)(O)C#Cc1cc2cc(-c3ccc(CC(=O)Nc4cncc(C(F)(F)F)c4)cc3)cnc2[nH]1 [Compound P-0204, 2-[4-[2-(3-hydroxy-3-methyl-but-1-ynyl)-1H-pyrrolo[2,3-b]pyridin-5-yl]phenyl]-N-[5-(trifluoromethyl)-3-pyridyl]acetamide] | 5.00 to 10.00 | 0.0001 to 10 µM
Cn1cc(Nc2ncc(-c3ccc(CC(=O)Nc4cncc(C(F)(F)F)c4)cc3F)cn2)cn1 [Compound P-0205, 2-[3-fluoro-4-[2-[(1-methylpyrazol-4-yl)amino]pyrimidin-5-yl]phenyl]-N-[5-(trifluoromethyl)-3-pyridyl]acetamide] | 5.00 to 10.00 | 0.0001 to 10 µM
Cn1cc(Nc2ncc(-c3cc(F)c(CC(=O)Nc4cncc(C(F)(F)F)c4)cc3F)cn2)cn1 [Compound P-0207, 2-[2,5-difluoro-4-[2-[(1-methylpyrazol-4-yl)amino]pyrimidin-5-yl]phenyl]-N-[5-(trifluoromethyl)-3-pyridyl]acetamide] | 5.00 to 10.00 | 0.0001 to 10 µM

More lines, now with the values ahead:

pIC50 [1] | GI50 (BA/F3-FLT3-ITD + D835Y) | Compound
5.00 to 10.00 | 0.0001 to 10 µM | COc1ncc(NC(=O)Cc2ccc(-c3cnc4[nH]c(-c5ccc(C#N)nc5)cc4c3)c(F)c2)cc1C(F)(F)F [Compound P-0014, 2-[4-[2-(6-cyano-3-pyridyl)-1H-pyrrolo[2,3-b]pyridin-5-yl]-3-fluoro-phenyl]-N-[6-methoxy-5-(trifluoromethyl)-3-pyridyl]acetamide]
5.00 to 10.00 | 0.0001 to 10 µM | Cn1cc(Nc2ncc(-c3ccc(CC(=O)Nc4cc(C(F)(F)F)ccn4)cc3F)cn2)cn1 [Compound P-0017, 2-[3-fluoro-4-[2-[(1-methylpyrazol-4-yl)amino]pyrimidin-5-yl]phenyl]-N-[4-(trifluoromethyl)-2-pyridyl]acetamide]
5.00 to 10.00 | 0.0001 to 10 µM | Cn1cc(Nc2ncc(-c3cc(F)c(CC(=O)Nc4cc(C(F)(F)F)ccn4)cc3F)cn2)cn1 [Compound P-0019, 2-[2,5-difluoro-4-[2-[(1-methylpyrazol-4-yl)amino]pyrimidin-5-yl]phenyl]-N-[4-(trifluoromethyl)-2-pyridyl]acetamide]
5.00 to 10.00 | 0.0001 to 10 µM | O=C(Cc1cc(F)c(-c2cnc(Nc3cnn(C(F)F)c3)nc2)cc1F)Nc1cc(C(F)(F)F)ccn1 [Compound P-0021, 2-[4-[2-[[1-(difluoromethyl)pyrazol-4-yl]amino]pyrimidin-5-yl]-2,5-difluoro-phenyl]-N-[4-(trifluoromethyl)-2-pyridyl]acetamide]
5.00 to 10.00 | 0.0001 to 10 µM | O=C(Cc1ccc(-c2cnc3[nH]c(-c4ccnc(N5CCOCC5)c4)cc3c2)c(F)c1)Nc1cncc(C(F)(F)F)c1 [Compound P-0201, 2-[3-fluoro-4-[2-(2-morpholino-4-pyridyl)-1H-pyrrolo[2,3-b]pyridin-5-yl]phenyl]-N-[5-(trifluoromethyl)-3-pyridyl]acetamide]
5.00 to 10.00 | 0.0001 to 10 µM | CCOc1n[nH]c2ncc(-c3ccc(CC(=O)Nc4cnc(OC)c(C(F)(F)F)c4)cc3F)cc12 [Compound P-0202, 2-[4-(3-ethoxy-1H-pyrazolo[3,4-b]pyridin-5-yl)-3-fluoro-phenyl]-N-[6-methoxy-5-(trifluoromethyl)-3-pyridyl]acetamide]
5.00 to 10.00 | 0.0001 to 10 µM | COc1ncc(NC(=O)Cc2ccc(-c3cnc4[nH]nc(N)c4c3)c(F)c2)cc1C(F)(F)F [Compound P-0203, 2-[4-(3-amino-1H-pyrazolo[3,4-b]pyridin-5-yl)-3-fluoro-phenyl]-N-[6-methoxy-5-(trifluoromethyl)-3-pyridyl]acetamide]
5.00 to 10.00 | 0.0001 to 10 µM | COc1ncc(NC(=O)Cc2ccc(-c3cnc(Nc4cnn(C)c4)nc3)c(F)c2)cc1C(F)(F)F [Compound P-0206, 2-[3-fluoro-4-[2-[(1-methylpyrazol-4-yl)amino]pyrimidin-5-yl]phenyl]-N-[6-methoxy-5-(trifluoromethyl)-3-pyridyl]acetamide]

Source: patent US10160747B2, “Compounds and methods for kinase modulation, and indications therefor” (Plexxikon Inc., priority 2016, dated 2018)
